Data set [1] deals with Aβ peptide production in rat primary neuronal culture. As to the kind of experiment: In vitro cellular assay: quantification of Aβ peptide in culture of neurons from rat fetus brain. It is filed as cell-based, Wistar rat. To be noted: Primary cortical neuron; Aβ ELISA, rat primary cortical neurons; Aβ species (x-40 or x-42) not given; read-out: IC50. Here is the method:
Quantification of Aβ Peptide in Culture of Neurons from Rat Fetus Brain
Primary neuronal cultures were prepared from the cerebral cortex of embryonic day 18 Wistar rats (Charles River, UK). Specifically, the embryos were aseptically removed from pregnant rats under ether anesthesia. The brain was isolated from the embryo and immersed in HBSS (Sigma Aldrich #H9269) containing 10 mM HEPES (Gibco #15630-056). The cerebral cortex was collected from the isolated brain under a stereoscopic microscope. The cerebral cortex fragments collected were enzymatically treated in an enzyme solution containing 0.05% trypsin-EDTA solution (GIBCO, #25300) at 37° C. for 20 minutes to disperse the cells. The cells were then washed twice and then gently resuspended in Neurobasal medium (Gibco #21103) supplemented with 2% B27 supplement (GIBCO #17504-044), 0.5 mM L-glutamine (GIBCO #25030), 1×N2 (GIBCO #17502-048), 100 μg/ml Pen/Strep (GIBCO 15140-122) and 5% heat inactivated FCS (PAA #A15-701). The cell dispersion was filtered through a 40-μm nylon mesh (BD Falcon #352340) to remove the remaining cell mass, and thus a neuronal cell suspension was obtained. The neuronal cell suspension was diluted with the medium above and then plated in a volume of 100 μL/well at an initial cell density of 3.25×10^5 cells/ml in poly-D-lysine coated 96-well culture plate (Greiner #655940). The plated cells were cultured in the culture plate at 37° C. in 5% CO2-95% air for 24 hrs. The total amount of the medium was replaced with ‘assay Neurobasal medium’ (as above excluding heat inactivated FCS), and then the cells were cultured for a further five days.
The drug was added to the culture plate on Day 6 of culture as follows. 8 point compound serial dilutions were generated in DMSO at a concentration of ×1000 that of the final assay concentration (FAC). Compound solutions were then prepared by adding 999 ul of ‘Assay Neurobasal media’ (as described in above section) to 1 ul of DMSO compound stock. The total amount of the medium was removed from each of the cell plate wells, and […] of ‘Assay Neurobasal media’ was added followed by […] of compound solution. The final DMSO concentration was 0.1%. […]
Cell survival was evaluated using an Alamar assay according to the following procedure. […]
Measurement of fluorescence intensity for each well was the carried out at 540/590 nm using a Pherastar plus plate reader (BMG labtech). […]
Human/Rat β Amyloid (42) ELISA Kit Wako (#290-62601) and Human/Rat P Amyloid (40) ELISA Kit Wako (#294-62501) from Wako Pure Chemical Industries, Ltd. were used for Aβ ELISA. […] The results were shown as percentage of the control groups and IC50 values for each compound were determined using four parameter logistic fit model using the XLFIT5 software package (IDBS).

A further data set has as its target BACE-1 (Homo sapiens, UniProt P56817). The settings on record: cited from earlier work.
For data set [2] the following is noted: TASTPM mice, cited from earlier work; for brain concentration: oral dose of 250 mg/kg.
A further data set has as its system Aβ40. To be noted: TASTPM mice, cited from earlier work.

Results on 2 compounds are retold here after US9175013B2, “Fused aminodihydrothiazine derivatives” (Eisai R&D Management Co., Ltd., priority 2011, dated 2015).

Where two headings read alike, the source gives them in different places.

Sequence of BACE-1 (P56817 46-501, species assumed): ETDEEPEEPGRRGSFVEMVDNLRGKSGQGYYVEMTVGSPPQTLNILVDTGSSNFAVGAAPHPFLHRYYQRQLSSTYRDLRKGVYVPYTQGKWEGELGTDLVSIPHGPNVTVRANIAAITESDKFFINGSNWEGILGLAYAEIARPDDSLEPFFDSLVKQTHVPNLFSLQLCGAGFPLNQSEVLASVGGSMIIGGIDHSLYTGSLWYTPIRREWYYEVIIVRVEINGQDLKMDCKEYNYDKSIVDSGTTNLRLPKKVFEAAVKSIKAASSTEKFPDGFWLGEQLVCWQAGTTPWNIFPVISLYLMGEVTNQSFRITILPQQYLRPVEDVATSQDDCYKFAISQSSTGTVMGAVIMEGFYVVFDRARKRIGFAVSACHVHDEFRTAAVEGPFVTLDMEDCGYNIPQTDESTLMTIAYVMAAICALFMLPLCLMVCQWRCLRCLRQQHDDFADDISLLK

By IC50 is commonly meant the concentration that inhibits the measured activity by half. Consider `COc1cnc(C(=O)Nc2cc(F)c(F)c([C@]34CO[C@H](C(F)F)[C@H]3CSC(N)=N4)c2)cn1` [Example 1, N-(3-((4aS,5S,7aS)-2-amino-5-(difluoromethyl)-4a,5,7,7a-tetrahydro-4H-furo[3,4-d][1,3]thiazin-7a-yl)-4,5-difluorophenyl)-5-methoxypyrazine-2-carboxamide], for which, in data set [1], the IC50 was 7 nM.

Regarding `CCNc1cc(C(=O)N[C@@H](Cc2ccccc2)[C@H](O)CNCc2cccc(C(F)(F)F)c2)c(F)c(N2CCCCS2(=O)=O)c1` [GSK188909], on BACE-1, the IC50 is 5 nM. The “increase in CNS penetration by co-administration of a Pgp inhibitor” value in data set [2] (250 mg/kg oral, with vs without GF120918) is on record as about 9 fold. The brain concentration is 5.43 µM in data set [2] (Pgp inhibitor GF120918 dosed 5 hours before) and 0.62 µM in data set [2] (no Pgp inhibitor). Moreover, in the data set with Aβ40 (250 mg/kg oral dose, absence of a Pgp inhibitor), the “effect on brain Aβ40 levels” value was “did not have any effect”. The “reduction in brain Aβ40 levels relative to vehicle-treated mice” value with Aβ40 (250 mg/kg oral, Pgp inhibitor co-administered 5 hours prior) is given as 68%.
